Counter-ions that a name gives are not always drawn.
How the values were obtained:
serotonin 1A receptor = target: T1, serotonin 1A receptor (Rattus norvegicus, UniProt P19327); assay: Binding test on [3H] 8-hydroxy-dipropylaminotetralin, hippocampus receptor fraction; parameters: species or system SD rats; conditions: rat hippocampus receptor fraction, 0.5 nM [3H] 8-OH-DPAT, room temperature 30 min; read-out: 5HT1
T1 construct: To the receptor fraction of the hippocampus were added a test compound and 0.5 nM of [^3H]; 8-hydroxy-dipropylaminotetralin; from tissue; host or cells: rat hippocampus membrane fraction
T1 sequence (P19327 1-422): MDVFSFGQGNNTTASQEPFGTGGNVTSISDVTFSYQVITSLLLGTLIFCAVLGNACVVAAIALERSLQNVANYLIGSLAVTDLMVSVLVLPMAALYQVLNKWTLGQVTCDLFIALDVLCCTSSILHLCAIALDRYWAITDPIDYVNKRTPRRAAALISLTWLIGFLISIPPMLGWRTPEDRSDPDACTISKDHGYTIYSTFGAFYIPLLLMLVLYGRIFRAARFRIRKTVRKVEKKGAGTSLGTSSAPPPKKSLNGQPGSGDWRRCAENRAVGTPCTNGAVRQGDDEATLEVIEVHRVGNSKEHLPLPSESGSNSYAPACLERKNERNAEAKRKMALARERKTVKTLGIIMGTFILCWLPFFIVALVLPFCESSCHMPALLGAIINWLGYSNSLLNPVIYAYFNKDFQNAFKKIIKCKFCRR

serotonin 2 receptor = target: T2, serotonin 2 receptor (Rattus norvegicus, UniProt P14842); assay: Binding test on [3H] ketanserin, cerebral cortex receptor fraction; parameters: species or system SD rats; conditions: 0.3 nM [3H] ketanserin, 37° C. 15 min, read-out: 5HT2
T2 construct: To the receptor fraction of the cerebral cortex were added a test compound and 0.3 nM of [^3H] ketanserin; from tissue; host or cells: rat cerebral cortex membrane fraction
T2 sequence (P14842 whole entry): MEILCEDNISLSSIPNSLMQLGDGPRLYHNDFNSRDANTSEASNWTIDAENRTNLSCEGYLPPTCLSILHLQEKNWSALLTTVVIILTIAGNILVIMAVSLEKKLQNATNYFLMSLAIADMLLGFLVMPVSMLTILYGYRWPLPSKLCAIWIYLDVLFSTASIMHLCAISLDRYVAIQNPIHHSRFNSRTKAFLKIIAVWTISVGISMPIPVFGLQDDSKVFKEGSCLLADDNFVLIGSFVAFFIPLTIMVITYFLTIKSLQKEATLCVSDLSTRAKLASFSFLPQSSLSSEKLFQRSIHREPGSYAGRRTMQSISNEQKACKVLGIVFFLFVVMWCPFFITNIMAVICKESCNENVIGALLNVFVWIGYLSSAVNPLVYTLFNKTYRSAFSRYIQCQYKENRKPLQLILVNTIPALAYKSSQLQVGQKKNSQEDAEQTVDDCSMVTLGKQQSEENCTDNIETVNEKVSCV

| SMILES | Ki (serotonin 1A receptor) [nM] | Ki (serotonin 2 receptor) [nM] |
| --- | --- | --- |
| CCNS(=O)(=O)c1ccc(-c2cc3ccccc3c(N3CCN(CC)CC3)n2)cc1 [Example 357, 1-(4-ethylpiperazin-1-yl)-3-[4-(N-ethylsulfamoyl)phenyl]isoquinoline dihydrochloride] | 2.8 | 0.58 |
| CCCN(C)S(=O)(=O)c1ccc(-c2cc3ccccc3c(N3CCN(CC)CC3)n2)cc1 [Example 358, 1-(4-ethylpiperazin-1-yl)-3-[4-(N-methyl-N-propylsulfamoyl)phenyl]isoquinoline dihydrochloride] | 6.4 | 19.1 |
| CCN1CCN(c2nc(-c3ccc(S(=O)(=O)N(CC)CC)cc3)cc3ccccc23)CC1 [Example 359, 1-(4-ethylpiperazin-1-yl)-3-[4-(N,N-diethylsulfamoyl)phenyl]isoquinoline dihydrochloride] | 6.1 | 3.2 |
| CCC(C)NS(=O)(=O)c1ccc(-c2cc3ccccc3c(N3CCN(CC)CC3)n2)cc1 (centres unmarked) [Example 360, 1-(4-ethylpiperazin-1-yl)-3-{4-[N-(1-methylpropyl)sulfamoyl]phenyl}isoquinoline dihydrochloride] | 2 | 1.5 |
| CCN1CCN(c2nc(-c3ccc(S(=O)(=O)NC)cc3)cc3ccccc23)CC1 [Example 361, 1-(4-ethylpiperazin-1-yl)-3-[4-(N-methylsulfamoyl)phenyl]isoquinoline dihydrochloride] | 3.5 | 2.6 |
| CCN1CCN(c2nc(-c3ccc(S(=O)(=O)N(C)C)cc3)cc3ccccc23)CC1 [Example 362, 1-(4-ethylpiperazin-1-yl)-3-[4-(N,N-dimethylsulfamoyl)phenyl]isoquinoline dihydrochloride] | 4.5 | 24.1 |
| CCN1CCN(c2nc(-c3ccc(S(=O)(=O)NC4CC4)cc3)cc3ccccc23)CC1 [Example 363, 1-(4-ethylpiperazin-1-yl)-3-[4-(N-cyclopropylsulfamoyl)phenyl]isoquinoline dihydrochloride] | 3.5 | 0.61 |
| CCNC(=O)c1ccc(-c2cc3ccccc3c(N3CCN(CC)CC3)n2)cc1 [Example 364, 1-(4-ethylpiperazin-1-yl)-3-[4-(N-ethylcarbamoyl)phenyl]isoquinoline dihydrochloride] | 21.7 | 3.9 |
| CCN1CCN(c2nc(-c3ccc(C(=O)NC)cc3)cc3ccccc23)CC1 [Example 365, 1-(4-ethylpiperazin-1-yl)-3-[4-(N-methylcarbamoyl)phenyl]isoquinoline dihydrochloride] | 26.2 | 9.9 |
| CCN1CCN(c2nc(-c3ccc(S(=O)(=O)CC)cc3)cc3ccccc23)CC1 [Example 366, 1-(4-ethylpiperazin-1-yl)-3-[4-(ethylsulfonyl)phenyl]isoquinoline dihydrochloride] | 3.8 | 7.2 |
| CCN1CCN(c2nc(-c3ccc(OCCOC)c(F)c3)cc3ccccc23)CC1 [Example 367, 1-(4-ethylpiperazin-1-yl)-3-(3-fluoro-4-methoxyethoxyphenyl)isoquinoline dihydrochloride] | 55.2 | 3.3 |
| CCN1CCN(c2nc(-c3cc(F)c(OCCOC)c(F)c3)cc3ccccc23)CC1 [Example 368, 1-(4-ethylpiperazin-1-yl)-3-(3,5-difluoro-4-methoxyethoxyphenyl)isoquinoline dihydrochloride] | 32 | 9.1 |
| CCN1CCN(c2nc(-c3ccc(OCCO)c(F)c3)cc3ccccc23)CC1 [Example 369, 1-(4-ethylpiperazin-1-yl)-3-[3-fluoro-4-(2-hydroxyethoxy)phenyl]isoquinoline dihydrochloride] | 28.2 | 2.5 |
| CCN1CCN(c2nc(-c3cc(F)c(OCCO)c(F)c3)cc3ccccc23)CC1 [Example 370, 1-(4-ethylpiperazin-1-yl)-3-[3,5-difluoro-4-(2-hydroxyethoxy)phenyl]isoquinoline] | 23.9 | 3.4 |
| CCN1CCN(c2nc(-c3cc(F)c(OCCF)c(F)c3)cc3ccccc23)CC1 [Example 371, 1-(4-ethylpiperazin-1-yl)-3-[3,5-difluoro-4-(2-fluoroethoxy)phenyl]isoquinoline dihydrochloride] | 41 | 4.3 |
| CCN1CCN(c2nc(Sc3ccccc3)cc3ccccc23)CC1 [Example 374, 1-(4-ethylpiperazin-1-yl)-3-(phenylthio)isoquinoline oxalate] | 44.5 | 24.7 |
| CCN1CCN(c2nc(-c3ccc(CC(C)=O)cc3)cc3ccccc23)CC1 [Example 375, 1-(4-ethylpiperazin-1-yl)-3-[4-(2-oxopropyl)phenyl]isoquinoline dihydrochloride] | 30.5 | 7.6 |
| CCN1CCN(c2nc(-c3ccc(CC(C)O)cc3)cc3ccccc23)CC1 (centres unmarked) [Example 376, 1-(4-ethylpiperazin-1-yl)-3-[4-(2-hydroxypropyl)phenyl]isoquinoline oxalate] | 19.5 | 6.3 |
| CCN1CCN(c2nc(-c3ccc(CC(C)(C)O)cc3)cc3ccccc23)CC1 [Example 377, 1-(4-Ethylpiperazin-1-yl)-3-[4-(2-Hydroxy-2-Methylpropyl)Phenyl]Isoquinoline Oxalate] | 28.5 | 16.5 |
| CCN1CCN(c2nc(Sc3ccccn3)cc3ccccc23)CC1 [Example 378, 1-(4-Ethylpiperazin-1-yl)-3-(2-Pyridylthio)Isoquinoline Oxalate] | 42.7 | 95.2 |
| CCC/C(=N\O)c1ccc(-c2cc3ccccc3c(N3CCN(CC)CC3)n2)cc1 [Example 380, 1-(4-Ethylpiperazin-1-yl)-3-[4-(1-Hydroxyiminobutyl)Phenyl]Isoquinoline] | 31.2 | 23 |
| CCCN(C)C(=O)c1ccc(-c2cc3ccccc3c(N3CCN(CC)CC3)n2)cc1 [Example 381] | 11.1 | 27.3 |
| CCN1CCN(c2nc(-c3ccc(C(C)(C)CCO)cc3)cc3ccccc23)CC1 [Example 390, Oxalate] | 7.5 | 11.1 |
| CCN1CCN(c2nc(-c3ccc(CO)c(CO)c3)cc3ccccc23)CC1 [Example 394, 1-(4-Ethylpiperazin-1-yl)-3-[(3,4-Dihydroxymethyl)Phenyl]Isoquinoline Dihydrochloride] | 10.7 | 32.9 |

The remaining lines, values ahead:

| Ki (serotonin 1A receptor) [nM] | Ki (serotonin 2 receptor) [nM] | SMILES |
| --- | --- | --- |
| 7.4 | 3.4 | CCN1CCN(c2nc(-c3ccc(C(C)CCO)cc3)cc3ccccc23)CC1 (centres unmarked) [Example 383, 1-(4-Ethylpiperazin-1-yl)-3-[4-(3-Hydroxy-1-Methylpropyl)Phenyl]Isoquinoline Oxalate] |
| 27.3 | 0.1 | CCCNC(=O)c1ccc(-c2cc3ccccc3c(N3CCN(CC)CC3)n2)cc1F [Example 384, 1-(4-Ethylpiperazin-1-yl)-3-[4-(N-Propylcarbamoyl)-3-Fluorophenyl]Isoquinoline Dihydrochloride] |
| 14.8 | 21.6 | CCN1CCN(c2nc(-c3ccc(CCO)c(F)c3)cc3ccccc23)CC1 [Example 385, 1-(4-Ethylpiperazin-1-yl)-3-[3-Fluoro-4-(2-Hydroxyethyl)Phenyl]Isoquinoline Dihydrochloride] |
| 8.9 | 2.4 | CCN1CCN(c2nc(-c3ccc(CC(C)CO)cc3)cc3ccccc23)CC1 (centres unmarked) [Example 386, 1-(4-Ethylpiperazin-1-yl)-3-[4-(3-Hydroxy-2-Methylpropyl)Phenyl]Isoquinoline Oxalate] |
| 25.1 | 24.7 | CCN1CCN(c2nc(-c3ccc(C(O)CO)cc3)cc3ccccc23)CC1 (centres unmarked) [Example 387, 1-(4-Ethylpiperazin-1-yl)-3-[4-(1,2-Dihydroxyethyl)Phenyl]Isoquinoline Dihydrochloride] |
| 21.5 | 0.7 | CCN1CCN(c2nc(-c3ccc(CCC(C)(C)O)cc3)cc3ccccc23)CC1 [Example 388, 1-(4-Ethylpiperazin-1-yl)-3-[4-(3-Hydroxy-3-Methylbutyl)Phenyl]Isoquinoline Dihydrochloride] |
| 14.2 | 7.3 | CCN1CCN(c2nc(-c3ccc(CC(C)(C)CO)cc3)cc3ccccc23)CC1 [Example 389, 1-(4-Ethylpiperazin-1-yl)-3-[4-(3-Hydroxy-2,2-Dimethylpropyl)Phenyl]Isoquinoline Oxalate] |
| 3.6 | 12.8 | CCN1CCN(c2nc(-c3ccc(C(O)C(C)(C)CO)cc3)cc3ccccc23)CC1 (centres unmarked) [Example 391, 1-(4-Ethylpiperazin-1-yl)-3-[4-(1,3-Dihydroxy-2,2-Dimethylpropyl)Phenyl]Isoquinoline Dihydrochloride] |
| 37.3 | 4.8 | CCN1CCN(c2nc(-c3ccc(C4COCCO4)cc3)cc3ccccc23)CC1 (centres unmarked) [Example 395, 1-(4-Ethylpiperazin-1-yl)-3-[4-(1,4-Dioxan-2-yl)Phenyl]Isoquinoline Dihydrochloride] |
| 50.4 | 2.6 | CCN1CCN(c2nc(-c3ccc(C4CCCO4)cc3)cc3ccccc23)CC1 (centres unmarked) [Example 396, 1-(4-Ethylpiperazin-1-yl)-3-[4-(Tetrahydrofuran-2-yl)Phenyl]Isoquinoline Dihydrochloride] |

Reference: patent US6875761B2 (Eisai Co., Ltd., priority 1997, dated 2005)
